Results as given in paper PMC10683023, “Targeting Glial Cells by Organic Anion-Transporting Polypeptide 1C1 (OATP1C1)-Utilizing L-Thyroxine-Derived Prodrugs” (Journal of Medicinal Chemistry, 2023).

What follows are molecules tested on mouse primary astrocytes (assay: Concentration-dependent cellular uptake into mouse primary astrocytes). Conditions: 5–400 μM, 30 min, 37 °C.
Format: cell-based
Method: The mouse primary astrocytes were isolated from neonatal pups (P0-2) of wild-type mice (C57BL/6JOlaHsd) as previously described, in compliance with the European Commission Directive 2010/63/EU and approved by the Institutional Animal Care and Use Committee of the University of Eastern Finland (Animal Usage Plan numbers: EKS-006-2019).[37] Neonatal pups were decapitated, and their brains were collected in an ice-cold HBSS buffer. After tissue dissociation and washing, cells were plated on poly-L-lysine-coated flasks and cultured in DMEM supplemented with FBS, L-glutamine, and penicillin/streptomycin (50 μg/mL) for 24 h. Debris and dead cells were removed by DPBS rinsing. After 7 days, microglial cells were removed, and the remaining astrocytic monolayer was collected by trypsinization using 0.05% trypsin-ethylenediaminetetraacetic acid (EDTA) (Gibco), pelleted, and stored at −80 °C for subsequent analysis. For the cell uptake experiments, the astrocytes were seeded on 24-well plates with a density of 10^4 cells/well 3 days before the experiments.
After removal of the culture medium, U-87MG human glioma cells and mouse primary astrocytes were carefully washed with prewarmed Hank’s balanced salt solution (HBSS) containing 125.0 mM NaCl (or choline chloride in Na^+ free conditions), 4.8 mM KCl, 1.2 mM MgSO4, 1.2 mM KH2PO4, 1.3 mM CaCl2, 5.6 mM glucose, and 25.0 mM 4-(2-hydroxyethyl)piperazine-1-ethanesulfonic acid (HEPES) with the pH adjusted to either 7.4 or pH 8.5 with 1 M NaOH (or KOH in sodium-free conditions). In the experiments at lower pH (4.5–6.5), 25.0 mM HEPES was replaced by 2-(N-morpholino) ethanesulfonic acid (MES), and the pH was adjusted to 4.5, 5.5, and 6.5 by 1.0 M NaOH. Preincubation was done with 500 μL of prewarmed HBSS at 37 °C for 10 min before adding the substrate for the uptake experiments. The functionality of OATP1C1 in human glioma U-87MG cells was studied with a known substrate (L-thyroxine, T4) and of oatp1a4, 1a5, and 1a6 in mouse primary astrocytes with [6,7-^3H(N)]-estrone-3-sulfate (ES) by incubating the uptake solution (250 μL in HBSS) consisting of 5–400 μM of the substrate at 37 °C for 30 min. After incubation, the uptake was stopped by adding 500 μL of ice-cold HBSS, and the cells were washed two times with ice-cold HBSS (2 × 500 μL). The cells were then lysed with 500 μL of 0.1 M NaOH (60 min), the lysate was neutralized, and the protein was precipitated with acidic acetonitrile (ACN with 4.8% formic acid). The supernatants were analyzed by the high-performance liquid chromatography (HPLC) methods described below (T4) or by using a liquid scintillation counter (MicroBeta2 counter, PerkinElmer, Waltham, MA) (ES). The concentrations of T4 and ES were calculated from the spiked standard curve and normalized with the protein concentrations. The protein concentrations on each plate were determined as a mean of three samples by Bio-Rad Protein Assay, based on the Bradford dye-binding method, using bovine serum albumin (BSA) as a standard protein and measuring the absorbance (595 nm) by a multiplate reader (EnVision, PerkinElmer, Inc., Waltham, MA). The OATP-mediated uptake was confirmed by changing the pH of the uptake buffer in the absence of sodium ions, and in the case of OATP1C1 in human U-87MG cells, the uptake of T4 (100 μM) was studied in the presence of competing OATP1C1-ligands, diclofenac and flufenamic acid (100 μM), and in the case of oatp1a4/1a5/1a6 in mouse primary astrocytes, the uptake of ES (100 μM) was studied in the presence of competing OATO1A2-ligand, naringin (100 μM).
Cellular uptake of prodrugs 1–8 was studied as described for L-thyroxine above by adding compounds at a concentration of 5–400 μM in prewarmed HBSS buffer (250 μL) on the cell layer and incubating at 37 °C for 30 min (uptake was linear with all compounds up to 30 min). Subsequently, the cells were washed three times with ice-cold HBSS and lysed with 500 μL of 0.1 M NaOH (60 min). […]

Row | Compound | Km | Vmax, cellular uptake, astrocytes
1 | CC(C(=O)Oc1c(I)cc(C[C@H](N)C(=O)O)cc1I)c1ccc(-c2ccccc2)c(F)c1 (mixture of isomers) [Prodrug 7, (2S)-2-Amino-3-(4-((2-(2-fluoro-[1,1′-biphenyl]-4-yl)propanoyl)oxy)-3,5-diiodophenyl)propanoic acid] | 360 ± 61 µM | 10.3 ± 1.1 nmol/min/mg
2 | CC(C(=O)Oc1c(I)cc(Oc2c(I)cc(C[C@H](N)C(=O)O)cc2I)cc1I)c1ccc(-c2ccccc2)c(F)c1 (mixture of isomers) [Prodrug 8, (2S)-2-Amino-3-(4-(4-((2-(2-fluoro-[1,1′-biphenyl]-4-yl)propanoyl)oxy)-3,5-diiodophenoxy)-3,5-diiodophenyl)propanoic acid] | 58 ± 20 µM | 3.0 ± 0.4 nmol/min/mg
3 | N[C@@H](Cc1cc(I)c(OC(=O)c2ccccc2O)c(I)c1)C(=O)O [Prodrug 3, (S)-2-Amino-3-(4-((2-hydroxybenzoyl)oxy)-3,5-diiodophenyl)propanoic acid] | 685 ± 97 µM | 13.0 ± 1.3 nmol/min/mg

Second part, led by results:

Row | Km | Compound | Vmax, cellular uptake, astrocytes
4 | 123 ± 21 µM | CC(C(=O)Oc1c(I)cc(Oc2c(I)cc(C[C@H](N)C(=O)O)cc2I)cc1I)c1cccc(C(=O)c2ccccc2)c1 (mixture of isomers) [Prodrug 2, (2S)-2-Amino-3-(4-(4-((2-(3-benzoylphenyl)propanoyl)oxy)-3,5-diiodophenoxy)-3,5-diiodophenyl)propanoic acid] | 5.5 ± 0.4 nmol/min/mg
5 | 86 ± 32 µM | N[C@@H](Cc1cc(I)c(Oc2cc(I)c(OC(=O)c3ccccc3O)c(I)c2)c(I)c1)C(=O)O [Prodrug 4, (S)-2-Amino-3-(4-(4-((2-hydroxybenzoyl)oxy)-3,5-diiodophenoxy)-3,5-diiodophenyl)propanoic acid] | 5.5 ± 0.8 nmol/min/mg

Each molecule was assayed on oatp1a4/1a5/1a6 (assay: Competitive uptake into mouse primary astrocytes in the presence of OATP1A2 inhibitor naringin). Conditions: 100 μM prodrug, 100 μM NRG, result in words.
Format: cell-based
Method: The competitive uptake in the presence of OATP-inhibitors or competing substrates (100 μM), diclofenac (DFC) and flufenamic acid (FFA), for OATP1C1 and naringin (NRG) for OATP1A2 was carried out as described above with HBSS buffer at pH 7.4 containing 100 μM of the studied compound. The cells were preincubated with the inhibitors for 10 min, and the incubation mixture was removed before adding the studied compound and the inhibitor to the cells. The competitive uptake (30 min) with the inhibitor was then carried out as the normal uptake described above. The concentrations of the studied compounds were analyzed by the HPLC methods described below, calculated from the spiked standard curve, and normalized with the protein concentrations.
The amount of prodrug 1–8 was determined by the HPLC system, which consisted of an Agilent 1100 binary pump (Agilent Technologies Inc., Wilmington, DE), an 1100 micro vacuum degasser, an HP 1050 Autosampler, and an HP 1050 variable wavelength detector, operated at 230–240 nm. The chromatographic separations were achieved on an Agilent Zorbax SB-C18 analytical column (4.4 mm × 150 mm, 5 μm) (Agilent Technologies Inc., Wilmington, DE) by using isocratic elution of water containing 0.1% formic acid (pH ca. 3.0) and acetonitrile containing 0.1% formic acid with ratios of 50:50, 30:70, 40:60, 50:50, 50:50, 40:60, 40:60, and 30:70 (v/v), respectively, for prodrug 1–8. […] The lower limit of quantification for prodrugs 1–8 was 0.20 μM. These HPLC methods were also accurate, precise, and selective over the range of 0.5–20 μM.

Row | Compound | Cellular uptake in the presence of OATP1A2 inhibitor naringin (NRG)
6 | CC(C(=O)Oc1c(I)cc(Oc2c(I)cc(C[C@H](N)C(=O)O)cc2I)cc1I)c1cccc(C(=O)c2ccccc2)c1 (mixture of isomers) [Prodrug 2, (2S)-2-Amino-3-(4-(4-((2-(3-benzoylphenyl)propanoyl)oxy)-3,5-diiodophenoxy)-3,5-diiodophenyl)propanoic acid] | greatest decrease
7 | COc1ccc2cc([C@H](C)C(=O)Oc3c(I)cc(C[C@H](N)C(=O)O)cc3I)ccc2c1 [Prodrug 5, (S)-2-Amino-3-(3,5-diiodo-4-(((S)-2-(6-methoxynaphthalen-2-yl)propanoyl)oxy)phenyl)propanoic acid] | increased
8 | COc1ccc2cc([C@H](C)C(=O)Oc3c(I)cc(Oc4c(I)cc(C[C@H](N)C(=O)O)cc4I)cc3I)ccc2c1 [Prodrug 6, (S)-2-Amino-3-(4-(3,5-diiodo-4-(((S)-2-(6-methoxynaphthalen-2-yl)propanoyl)oxy)phenoxy)-3,5-diiodophenyl)propanoic acid] | increased
